PMC2817752, “Phenylbutyric Acid Rescues Endoplasmic Reticulum Stress-Induced Suppression of APP Proteolysis and Prevents Apoptosis in Neuronal Cells” (PLoS ONE, 2010)

Molecular target: T1, γ-secretase (presenilin-1, PS1) (Mus musculus, UniProt P49769)
T1 construct: gene Psen1; endogenous γ-secretase complex in N2a (NAG) cells, APPGV16 as substrate; with Nicastrin and the other subunits of the heterotetrameric γ-secretase complex
Test: Gal4-luciferase reporter of γ-secretase cleavage of APPGV16 in stable N2a cells, […] h; CTF accumulation by western blot
Assay type: cell-based

- IC50: ~1 µM
SMILES: C[C@H](NC(=O)Cc1cc(F)cc(F)c1)C(=O)N[C@H](C(=O)OC(C)(C)C)c1ccccc1 [DAPT]
